Source: patent US20260297085A1, “1 H-PYRROLO[2,3-B]PYRIDIN-4-YL]-2-OXOPYRROLIDINE-3-CARBONITRILE DERIVATIVES AS TYROSINE KINASE 2 (TYK2) INHIBITORS FOR THE TREATMENT OF INFLAMMATORY DISEASES” (BIOGEN MA INC., priority 2023, published 2026)
pIC50: −log10 of the molar value. Counter-ions that a name gives are not always drawn.

Assays:
[1] = target: T1, human JAK1 kinase domain (JH1) (Homo sapiens, UniProt P23458); assay: JH1 biochemical assay for JAK1 (ADP-Glo kinase assay, recombinant JH1 catalytic domain, JAK3-342 peptide, 35 μM ATP)
T1 construct: recombinantly generated catalytic kinase (also known as JH1) domain of human JAK1, JAK2, JAK3 and TYK2
T1 sequence (P23458 875-1153 limits assumed): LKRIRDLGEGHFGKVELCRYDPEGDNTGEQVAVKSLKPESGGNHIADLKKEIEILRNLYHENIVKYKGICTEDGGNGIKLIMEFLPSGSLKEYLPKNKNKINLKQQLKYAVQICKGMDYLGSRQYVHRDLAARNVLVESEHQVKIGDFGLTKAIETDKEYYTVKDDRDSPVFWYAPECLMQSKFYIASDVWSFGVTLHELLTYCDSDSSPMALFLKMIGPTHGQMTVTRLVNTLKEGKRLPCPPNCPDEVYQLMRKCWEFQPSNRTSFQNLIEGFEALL
Procedure, shortened: (§1)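 Reactions ran 100 min with 50 μM substrate peptide (JAK3-342 for JAK1 at 4 nM enzyme; JAK3-974 for JAK2 0.2 nM, JAK3 0.3 nM, TYK2 2 nM), and ADP formed was read by ADP-Glo luminescence. Eleven-point 3-fold series from 10 or 1 μM; IC50 fitted by 4-parameter logistic model.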

[2] = target: T2, human JAK2 kinase domain (JH1) (Homo sapiens, UniProt O60674); assay: JH1 biochemical assay for JAK2 (ADP-Glo kinase assay, recombinant JH1 catalytic domain, JAK3-974 peptide, 15 μM ATP)
T2 construct: recombinantly generated catalytic kinase (also known as JH1) domain of human JAK1, JAK2, JAK3 and TYK2
T2 sequence (O60674 849-1124 limits assumed): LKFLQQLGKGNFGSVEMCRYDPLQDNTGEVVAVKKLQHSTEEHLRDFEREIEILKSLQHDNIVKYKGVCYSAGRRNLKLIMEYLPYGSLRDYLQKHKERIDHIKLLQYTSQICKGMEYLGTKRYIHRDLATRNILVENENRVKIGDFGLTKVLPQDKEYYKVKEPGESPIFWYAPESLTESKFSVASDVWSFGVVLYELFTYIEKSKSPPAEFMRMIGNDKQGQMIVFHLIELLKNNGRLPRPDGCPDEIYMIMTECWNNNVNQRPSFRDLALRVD
Procedure, shortened: as §1

[3] = target: T3, human TYK2 kinase domain (JH1) (Homo sapiens, UniProt P29597); assay: JH1 biochemical assay for TYK2 (ADP-Glo kinase assay, recombinant JH1 catalytic domain, JAK3-974 peptide, 10 μM ATP)
T3 construct: recombinantly generated catalytic kinase (also known as JH1) domain of human JAK1, JAK2, JAK3 and TYK2
T3 sequence (P29597 897-1176 limits assumed): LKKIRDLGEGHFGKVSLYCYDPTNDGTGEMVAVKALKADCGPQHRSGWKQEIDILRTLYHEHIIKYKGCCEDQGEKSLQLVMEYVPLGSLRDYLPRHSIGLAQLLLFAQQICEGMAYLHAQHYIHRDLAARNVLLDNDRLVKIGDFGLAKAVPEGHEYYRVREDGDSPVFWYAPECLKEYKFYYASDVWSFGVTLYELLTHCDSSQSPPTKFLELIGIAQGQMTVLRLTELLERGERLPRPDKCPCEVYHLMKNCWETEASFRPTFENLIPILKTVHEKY
Procedure, shortened: as §1

[4] = target: T4, human JAK3 kinase domain (JH1) (Homo sapiens, UniProt P52333); assay: JH1 biochemical assay for JAK3 (ADP-Glo kinase assay, recombinant JH1 catalytic domain, JAK3-974 peptide, 4 μM ATP)
T4 construct: recombinantly generated catalytic kinase (also known as JH1) domain of human JAK1, JAK2, JAK3 and TYK2
T4 sequence (P52333 822-1111 limits assumed): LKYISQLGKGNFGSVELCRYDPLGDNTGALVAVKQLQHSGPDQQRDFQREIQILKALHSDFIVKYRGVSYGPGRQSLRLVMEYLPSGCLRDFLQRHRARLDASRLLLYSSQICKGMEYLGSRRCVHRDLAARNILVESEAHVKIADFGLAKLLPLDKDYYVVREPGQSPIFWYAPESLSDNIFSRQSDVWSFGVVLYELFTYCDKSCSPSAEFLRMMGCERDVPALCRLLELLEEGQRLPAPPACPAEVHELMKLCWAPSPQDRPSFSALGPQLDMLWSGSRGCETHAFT
Procedure, shortened: as §1

| SMILES | pIC50 ([1]; JAK1 JH1, ADP-Glo) | pIC50 ([2]; JAK2 JH1, ADP-Glo) | pIC50 ([3]; TYK2 JH1, ADP-Glo) | pIC50 ([4]; JAK3 JH1, ADP-Glo) | pIC50 ([1]; JH1 kinase domain, ADP-Glo) | pIC50 ([2]; JH1 kinase domain, ADP-Glo) | pIC50 ([3]; JH1 kinase domain, ADP-Glo) | pIC50 ([4]; JH1 kinase domain, ADP-Glo) |
| --- | --- | --- | --- | --- | --- | --- | --- | --- |
| C[C@@H]1CN(c2nc(-c3ccc(C(F)(F)F)nc3)cn3nccc23)C(=O)[C@]1(C#N)C1CC1 [Example 238, (3R,4S)-3-cyclopropyl-4-methyl-2-oxo-1-(6-(6-(trifluoromethyl)pyridin-3-yl)pyrazolo[1,5-a]pyrazin-4-yl)pyrrolidine-3-carbonitrile trifluoroacetate] | < 5.00 | < 5.00 | < 7.00 | < 5.00 |  |  |  |  |
| C[C@@H]1CN(c2cccn3nc(-c4cnn(C)c4)cc23)C(=O)[C@]1(C#N)C1CC1 [Example 272, (3R,4S)-3-cyclopropyl-4-methyl-1-(2-(1-methyl-1H-pyrazol-4-yl)pyrazolo[1,5-a]pyridin-4-yl)-2-oxopyrrolidine-3-carbonitrile] | < 5.00 | < 5.00 | < 7.00 | < 5.00 |  |  |  |  |
| C[C@@H]1CN(c2ccnn3cc(-c4cncc(C#N)n4)cc23)C(=O)[C@]1(C#N)C1CC1 [Example 133, 6-(4-((3R,4S)-3-cyano-3-cyclopropyl-4-methyl-2-oxopyrrolidin-1-yl)pyrrolo[1,2-b]pyridazin-6-yl)pyrazine-2-carbonitrile trifluoroacetate] |  |  |  |  | 5.30 to 6.00 | 5.30 to 6.00 | 7.30 to 7.70 | 5.30 to 6.00 |
| C[C@@H]1CN(c2ccnn3cc(-c4nc(C#N)cs4)cc23)C(=O)[C@]1(C#N)C1CC1 [Example 114, 2-(4-((3R,4S)-3-cyano-3-cyclopropyl-4-methyl-2-oxopyrrolidin-1-yl)pyrrolo[1,2-b]pyridazin-6-yl)thiazole-4-carbonitrile trifluoroacetate] |  |  |  |  | < 5.00 | < 5.00 | 7.30 to 7.70 | 5.30 to 6.00 |
| C[C@@H]1CN(c2ccnn3cc(-c4ccc(CO)cn4)cc23)C(=O)[C@]1(C#N)C1CC1 [Example 150, (3R,4S)-3-cyclopropyl-1-(6-(5-(hydroxymethyl)pyridin-2-yl)pyrrolo[1,2-b]pyridazin-4-yl)-4-methyl-2-oxopyrrolidine-3-carbonitrile trifluoroacetate] |  |  |  |  | 6.00 to 7.00 | 6.00 to 7.00 | 7.70 to 8.30 | 6.00 to 7.00 |
| CCc1ncccc1-c1cc2c(N3C[C@@H](C)[C@@](C#N)(C4CC4)C3=O)ccnn2c1 [Example 178, (3R,4S)-3-cyclopropyl-1-(6-(2-ethylpyridin-3-yl)pyrrolo[1,2-b]pyridazin-4-yl)-4-methyl-2-oxopyrrolidine-3-carbonitrile trifluoroacetate] |  |  |  |  | 5.00 to 5.30 | < 5.00 | < 7.00 | 5.00 to 5.30 |
| CC[C@@H]1C[C@@](C#N)(C2CC2)C(=O)N1c1ccnn2cc(-c3cnn(C)c3)cc12 [Example 18, (3S,5R)-3-cyclopropyl-5-ethyl-1-(6-(1-methyl-1H-pyrazol-4-yl)pyrrolo[1,2-b]pyridazin-4-yl)-2-oxopyrrolidine-3-carbonitrile] |  |  |  |  | 5.30 to 6.00 | 6.00 to 7.00 | < 7.00 | 5.30 to 6.00 |
| C[C@@H]1CN(c2ccnn3cc(-c4cccc5nccn45)cc23)C(=O)[C@]1(C#N)C1CC1 [Example 141, (3R,4S)-3-cyclopropyl-1-(6-(imidazo[1,2-a]pyridin-5-yl)pyrrolo[1,2-b]pyridazin-4-yl)-4-methyl-2-oxopyrrolidine-3-carbonitrile trifluoroacetate] |  |  |  |  | 5.30 to 6.00 | 5.30 to 6.00 | 7.30 to 7.70 | 5.30 to 6.00 |
| C[C@@H]1CN(c2ccnn3cc(-c4nccn5ccnc45)cc23)C(=O)[C@]1(C#N)C1CC1 [Example 123, (3R,4S)-3-cyclopropyl-1-(6-(imidazo[1,2-a]pyrazin-8-yl)pyrrolo[1,2-b]pyridazin-4-yl)-4-methyl-2-oxopyrrolidine-3-carbonitrile trifluoroacetate] |  |  |  |  | < 5.00 | < 5.00 | < 7.00 | < 5.00 |
